In PMC11345841, “Exploring 2-Sulfonylpyrimidine Warheads as Acrylamide Surrogates for Targeted Covalent Inhibition: A BTK Story” (Journal of Medicinal Chemistry, 2024):
Like-named read-outs stand apart in the source and are kept apart here.

Key:
[1] = target: T1, EPHA5 (Homo sapiens, UniProt P54756); assay: KINOMEscan ScanTK; type: binding
T1 construct: purchased Eurofins DiscoverX KINOMEscan (scanTK)

[2] = system: FLT3(ITD); assay: KINOMEscan ScanTK; type: binding
[3] = system: TMD8 cells; assay: Annexin V/propidium iodide staining (apoptosis, viability); type: cell-based, human; conditions: 72 h
Method: We tested the effects of compounds in TMD8 cells, derived from an activated B-cell DLBCL. These cells have constitutive signaling via the BCR and additionally carry MYD88^L265P and CD79B mutations which give rise to My-T-BCR complex. […] Apoptosis was quantified after exposure of cells to compounds for 72 h using annexin V/PI staining and flow cytometry (Figure 3E, Figure S4).
Cells were washed in phosphate-buffered saline and resuspended in 300 μL of annexin V staining buffer (10 mM HEPES HCl (pH 7.4), 140 mM NaCl, 2.5 mM CaCl2) supplemented with 2.5 μg/mL fluorescein isothiocyanate-labeled annexin V (kind gift from Dr Patrick Duriez, Protein Core Facility, University of Southampton) and 12.5 μM propidium iodide (Invitrogen). Cells were analyzed by flow cytometry (Canto II system, BD Biosciences) and the percentage of viable cells was determined by calculating the proportion of Annexin V-/PI-cells as a percentage of all cells (results for untreated cells at 72 h set to 100%).

[4] = target: T2, FLT3(K663Q) (Homo sapiens, UniProt P36888, K663Q); assay: KINOMEscan ScanTK; type: binding
T2 construct: purchased Eurofins DiscoverX KINOMEscan (scanTK)
T2 sequence (P36888 27-993 K663Q): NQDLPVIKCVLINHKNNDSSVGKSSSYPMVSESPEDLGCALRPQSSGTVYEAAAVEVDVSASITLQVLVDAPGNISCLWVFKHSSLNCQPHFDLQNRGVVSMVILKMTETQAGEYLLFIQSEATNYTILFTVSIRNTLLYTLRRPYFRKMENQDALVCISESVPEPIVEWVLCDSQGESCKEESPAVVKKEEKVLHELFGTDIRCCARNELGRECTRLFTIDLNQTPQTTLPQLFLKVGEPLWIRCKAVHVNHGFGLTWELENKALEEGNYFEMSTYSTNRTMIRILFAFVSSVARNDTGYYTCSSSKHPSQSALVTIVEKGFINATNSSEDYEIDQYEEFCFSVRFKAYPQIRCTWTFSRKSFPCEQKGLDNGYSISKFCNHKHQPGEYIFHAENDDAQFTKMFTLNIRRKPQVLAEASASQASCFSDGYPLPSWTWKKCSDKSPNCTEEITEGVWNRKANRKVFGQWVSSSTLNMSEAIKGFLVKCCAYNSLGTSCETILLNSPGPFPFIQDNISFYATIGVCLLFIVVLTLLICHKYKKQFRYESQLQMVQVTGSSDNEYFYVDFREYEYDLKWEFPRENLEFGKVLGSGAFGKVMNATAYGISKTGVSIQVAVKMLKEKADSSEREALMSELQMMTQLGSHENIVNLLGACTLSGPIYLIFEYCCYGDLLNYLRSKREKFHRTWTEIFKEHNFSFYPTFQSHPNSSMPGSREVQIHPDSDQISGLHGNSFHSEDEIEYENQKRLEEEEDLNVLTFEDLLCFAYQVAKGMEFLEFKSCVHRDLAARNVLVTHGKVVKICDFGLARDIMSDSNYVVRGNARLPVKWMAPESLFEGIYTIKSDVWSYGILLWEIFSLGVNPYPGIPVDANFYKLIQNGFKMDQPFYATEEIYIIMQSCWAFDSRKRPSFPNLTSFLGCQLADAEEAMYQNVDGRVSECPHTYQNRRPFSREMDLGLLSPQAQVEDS

[5] = system: TMD8 cells; assay: RNA-seq gene expression; conditions: for Expr Log Ratio: 8d versus Ibrutinib
[6] = target: T3, KIT(V559D,V654A) (Homo sapiens, UniProt P10721, V559D/V654A); assay: KINOMEscan ScanTK; type: binding
T3 construct: purchased Eurofins DiscoverX KINOMEscan (scanTK)
T3 sequence (P10721 26-976 V559D/V654A): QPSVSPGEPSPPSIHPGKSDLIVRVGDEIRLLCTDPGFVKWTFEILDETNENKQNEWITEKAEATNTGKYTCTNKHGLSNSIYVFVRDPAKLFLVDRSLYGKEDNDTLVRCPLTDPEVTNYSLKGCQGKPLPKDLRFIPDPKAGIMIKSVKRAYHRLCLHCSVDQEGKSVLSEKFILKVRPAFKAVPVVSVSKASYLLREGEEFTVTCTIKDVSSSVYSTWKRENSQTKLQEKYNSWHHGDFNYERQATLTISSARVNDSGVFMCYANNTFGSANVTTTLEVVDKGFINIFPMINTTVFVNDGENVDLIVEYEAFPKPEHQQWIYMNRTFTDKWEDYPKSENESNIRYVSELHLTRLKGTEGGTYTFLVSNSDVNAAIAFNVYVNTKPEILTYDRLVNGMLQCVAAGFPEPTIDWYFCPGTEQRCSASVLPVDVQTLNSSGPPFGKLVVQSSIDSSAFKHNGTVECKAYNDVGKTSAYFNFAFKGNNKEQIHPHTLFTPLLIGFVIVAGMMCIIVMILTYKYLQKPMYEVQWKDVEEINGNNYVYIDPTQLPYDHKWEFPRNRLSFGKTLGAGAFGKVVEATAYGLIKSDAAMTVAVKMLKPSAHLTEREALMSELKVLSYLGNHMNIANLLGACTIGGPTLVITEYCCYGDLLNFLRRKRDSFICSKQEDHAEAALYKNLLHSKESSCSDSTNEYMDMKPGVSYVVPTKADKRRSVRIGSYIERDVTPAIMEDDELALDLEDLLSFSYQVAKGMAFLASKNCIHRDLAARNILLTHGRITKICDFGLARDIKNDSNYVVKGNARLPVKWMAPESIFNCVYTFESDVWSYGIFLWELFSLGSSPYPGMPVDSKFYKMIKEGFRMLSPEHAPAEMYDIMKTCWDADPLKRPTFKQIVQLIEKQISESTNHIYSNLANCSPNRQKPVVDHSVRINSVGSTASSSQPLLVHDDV

[7] = target: BTK, full length (2–659) (Homo sapiens, UniProt Q06187); assay: Kinact/Ki determination, PhosphoSens progress curve analysis; type: biochemical
Sequence of BTK, full length (2–659) (Q06187 2-659): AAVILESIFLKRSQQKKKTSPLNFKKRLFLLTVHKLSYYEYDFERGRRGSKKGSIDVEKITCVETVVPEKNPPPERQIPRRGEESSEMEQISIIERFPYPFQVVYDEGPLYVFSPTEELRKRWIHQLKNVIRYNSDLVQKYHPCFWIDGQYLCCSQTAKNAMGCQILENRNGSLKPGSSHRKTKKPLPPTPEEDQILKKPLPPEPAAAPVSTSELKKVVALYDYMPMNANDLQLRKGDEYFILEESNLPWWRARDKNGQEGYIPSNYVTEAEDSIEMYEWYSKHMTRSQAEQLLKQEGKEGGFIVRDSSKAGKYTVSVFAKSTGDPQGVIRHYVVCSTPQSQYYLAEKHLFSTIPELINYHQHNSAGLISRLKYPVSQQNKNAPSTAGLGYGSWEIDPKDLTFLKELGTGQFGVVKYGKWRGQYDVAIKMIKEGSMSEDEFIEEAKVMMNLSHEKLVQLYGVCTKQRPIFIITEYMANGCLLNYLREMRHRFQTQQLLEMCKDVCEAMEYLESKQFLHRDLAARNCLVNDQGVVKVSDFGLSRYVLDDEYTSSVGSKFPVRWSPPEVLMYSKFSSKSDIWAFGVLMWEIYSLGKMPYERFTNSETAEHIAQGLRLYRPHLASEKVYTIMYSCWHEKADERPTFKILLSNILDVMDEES
Method: Nonlinear regression was performed using the Solver algorithm in Excel. […] Two-step Kinact/Ki fits were extracted from the progress curve analysis of all compounds against BTK, enabling independent Kinact and Ki determinations.

[8] = target: T4, FER (Homo sapiens, UniProt P16591); assay: KINOMEscan ScanTK; type: binding
T4 construct: purchased Eurofins DiscoverX KINOMEscan (scanTK)
T4 sequence (P16591 whole entry): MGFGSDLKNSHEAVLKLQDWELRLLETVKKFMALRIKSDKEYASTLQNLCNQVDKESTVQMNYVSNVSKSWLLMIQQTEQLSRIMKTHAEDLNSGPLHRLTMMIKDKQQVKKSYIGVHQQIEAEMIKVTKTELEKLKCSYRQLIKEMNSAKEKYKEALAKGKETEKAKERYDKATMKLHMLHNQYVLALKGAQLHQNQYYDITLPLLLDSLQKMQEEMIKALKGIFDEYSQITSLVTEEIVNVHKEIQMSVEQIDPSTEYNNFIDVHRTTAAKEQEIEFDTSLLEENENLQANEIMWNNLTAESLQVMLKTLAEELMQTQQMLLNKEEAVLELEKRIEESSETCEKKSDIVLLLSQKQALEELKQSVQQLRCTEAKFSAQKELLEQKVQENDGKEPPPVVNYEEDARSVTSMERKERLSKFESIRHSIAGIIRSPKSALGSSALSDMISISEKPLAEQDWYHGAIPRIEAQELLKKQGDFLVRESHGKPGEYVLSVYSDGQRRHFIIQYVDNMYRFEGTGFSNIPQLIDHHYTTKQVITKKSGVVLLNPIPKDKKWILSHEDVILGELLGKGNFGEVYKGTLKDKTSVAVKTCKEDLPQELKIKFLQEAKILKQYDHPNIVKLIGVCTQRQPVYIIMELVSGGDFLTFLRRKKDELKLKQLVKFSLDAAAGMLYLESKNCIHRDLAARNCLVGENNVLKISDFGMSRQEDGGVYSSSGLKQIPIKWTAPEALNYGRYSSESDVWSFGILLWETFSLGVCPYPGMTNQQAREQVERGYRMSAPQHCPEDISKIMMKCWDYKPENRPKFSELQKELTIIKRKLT

T1 sequence (P54756 25-1037): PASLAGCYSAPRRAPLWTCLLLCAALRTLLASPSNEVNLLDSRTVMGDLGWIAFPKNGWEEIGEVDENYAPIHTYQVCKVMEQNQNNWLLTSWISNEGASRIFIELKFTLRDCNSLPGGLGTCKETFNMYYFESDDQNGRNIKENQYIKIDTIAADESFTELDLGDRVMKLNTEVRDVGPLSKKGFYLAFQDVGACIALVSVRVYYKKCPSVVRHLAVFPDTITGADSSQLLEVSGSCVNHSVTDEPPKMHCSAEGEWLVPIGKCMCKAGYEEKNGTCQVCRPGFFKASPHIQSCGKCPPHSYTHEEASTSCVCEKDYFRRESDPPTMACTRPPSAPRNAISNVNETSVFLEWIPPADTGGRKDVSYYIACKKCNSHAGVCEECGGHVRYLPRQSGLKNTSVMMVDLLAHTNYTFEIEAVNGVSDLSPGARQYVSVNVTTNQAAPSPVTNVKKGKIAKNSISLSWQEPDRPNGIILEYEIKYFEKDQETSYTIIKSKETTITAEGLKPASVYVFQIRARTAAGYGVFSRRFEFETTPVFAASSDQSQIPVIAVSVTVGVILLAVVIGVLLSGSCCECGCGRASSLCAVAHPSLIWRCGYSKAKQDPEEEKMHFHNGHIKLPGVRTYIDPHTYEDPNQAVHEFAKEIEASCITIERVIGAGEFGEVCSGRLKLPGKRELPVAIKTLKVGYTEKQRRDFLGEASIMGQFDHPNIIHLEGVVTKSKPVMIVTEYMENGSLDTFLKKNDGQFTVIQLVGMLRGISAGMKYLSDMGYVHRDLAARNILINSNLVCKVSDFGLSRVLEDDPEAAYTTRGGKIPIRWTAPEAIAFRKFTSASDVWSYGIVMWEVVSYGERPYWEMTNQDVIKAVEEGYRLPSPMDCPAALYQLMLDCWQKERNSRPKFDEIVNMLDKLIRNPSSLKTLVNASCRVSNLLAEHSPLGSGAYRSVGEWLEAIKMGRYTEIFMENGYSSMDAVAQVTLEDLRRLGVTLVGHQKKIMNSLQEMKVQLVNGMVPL

CNC(=O)c1cnc(S(C)(=O)=O)nc1N1CCCC(n2nc(-c3ccc(Oc4ccccc4)cc3)c3c(N)ncnc32)C1 (stereo not shown) [Compound 8d, 4-(3-(4-Amino-3-(4-phenoxyphenyl)-1H-pyrazolo[3,4-d]pyrimidin-1-yl)piperidin-1-yl)-N-methyl-2-(methylsulfonyl)pyrimidine-5-carboxamide]
difference in %Control from compound Ib at 1 µM ([1]; @1000nM): 4%
remaining binding at 1 µM ([1]; @1000nM, read-out: %Control): 100%
remaining binding at 1 µM ([1]; read-out: %Control @1000nM): 100%
%Control @1000nM [2]: 94%
% difference (compound - Ib %Control) ([2]; @1000nM): 22%
%Control ([2]; @1000nM): 94%
fold lower apoptotic potency than Ibrutinib [3]: ~10 fold
induction of apoptosis [3]: induced apoptosis
difference in %Control from compound Ib at 1 µM ([4]; @1000nM): 36%
remaining binding at 1 µM ([4]; @1000nM, read-out: %Control): 80%
remaining binding at 1 µM ([4]; read-out: %Control @1000nM): 80%
Expr Log Ratio ([5]; ACTN4): 0.022
Expr Log Ratio ([5]; ACVR1C): -0.029
Expr Log Ratio ([5]; APC): 0.064
Expr Log Ratio ([5]; APOC1): -0.164
Expr Log Ratio ([5]; ARHGAP31): 0.01
Expr Log Ratio ([5]; ARNT2): 0.044
Expr Log Ratio ([5]; AURKA): -0.004
Expr Log Ratio ([5]; BLOC1S5): -0.004
Expr Log Ratio ([5]; BMPR2): 0.081
Expr Log Ratio ([5]; BRCA1): 0.248
Expr Log Ratio ([5]; BRD7): 0.035
Expr Log Ratio ([5]; BTRC): 0.281
Expr Log Ratio ([5]; CD80): -0.429
Expr Log Ratio ([5]; CDKN1A): -0.127
Expr Log Ratio ([5]; COL1A1): -0.248
Expr Log Ratio ([5]; CREBZF): -0.251
Expr Log Ratio ([5]; CREM): -0.036
Expr Log Ratio ([5]; CTR9): 0.099
Expr Log Ratio ([5]; CYB561A3): -0.04
Expr Log Ratio ([5]; DEF6): 0.017
Expr Log Ratio ([5]; DNM1L): 0.002
Expr Log Ratio ([5]; DTNBP1): 0.278
Expr Log Ratio ([5]; DTX1): -0.178
Expr Log Ratio ([5]; ECM1): 0.54
Expr Log Ratio ([5]; EHD1): -0.044
Expr Log Ratio ([5]; EIF2AK4): 0.093
Expr Log Ratio ([5]; EIF2B5): -0.104
Expr Log Ratio ([5]; ELAVL1): -0.071
Expr Log Ratio ([5]; ESR1): -0.045
Expr Log Ratio ([5]; ETS1): 0.064
Expr Log Ratio ([5]; FECH): 0.061
Expr Log Ratio ([5]; FGF2): 0.272
Expr Log Ratio ([5]; FGFR4): -0.062
Expr Log Ratio ([5]; FTO): -0.134
Expr Log Ratio ([5]; GLIS2): -0.228
Expr Log Ratio ([5]; GNB1): 0.033
Expr Log Ratio ([5]; GNB2): -0.086
Expr Log Ratio ([5]; GPI): -0.003
Expr Log Ratio ([5]; GPNMB): 0.582
Expr Log Ratio ([5]; GSTP1): -0.086
Expr Log Ratio ([5]; H1-2): -0.09
Expr Log Ratio ([5]; HDAC1): -0.011
Expr Log Ratio ([5]; HDAC8): -0.281
Expr Log Ratio ([5]; HNRNPAB): -0.136
Expr Log Ratio ([5]; HSF2): -0.15
Expr Log Ratio ([5]; HTATIP2): 0.03
Expr Log Ratio ([5]; IL1A): 0.332
Expr Log Ratio ([5]; ING1): -0.221
Expr Log Ratio ([5]; KDM6B): -0.137
Expr Log Ratio ([5]; LOX): -0.113
Expr Log Ratio ([5]; LOXL2): 0.149
Expr Log Ratio ([5]; MAPK8): -0.028
Expr Log Ratio ([5]; MAPK9): 0.146
Expr Log Ratio ([5]; MAPKAP1): -0.077
Expr Log Ratio ([5]; MDM4): -0.082
Expr Log Ratio ([5]; MED1): -0.016
Expr Log Ratio ([5]; MESP1): -0.242
Expr Log Ratio ([5]; MESP2): -0.023
Expr Log Ratio ([5]; MFN2): -0.162
Expr Log Ratio ([5]; MGAT3): -0.275
Expr Log Ratio ([5]; MGAT5): 0.29
Expr Log Ratio ([5]; MPZ): -0.137
Expr Log Ratio ([5]; MTA3): -0.001
Expr Log Ratio ([5]; NCL): -0.053
Expr Log Ratio ([5]; NCOA2): 0.045
Expr Log Ratio ([5]; NDRG2): 0.057
Expr Log Ratio ([5]; NFIA): 0.254
Expr Log Ratio ([5]; NFYB): 0.006
Expr Log Ratio ([5]; NORAD): -0.057
Expr Log Ratio ([5]; NR1H3): 0.155
Expr Log Ratio ([5]; OIP5-AS1): 0.071
Expr Log Ratio ([5]; PADI2): 0.089
Expr Log Ratio ([5]; PCGF2): 0.108
Expr Log Ratio ([5]; PDCD4): 0.188
Expr Log Ratio ([5]; PIAS3): 0.008
Expr Log Ratio ([5]; POR): -0.13
Expr Log Ratio ([5]; PPIA): 0.046
Expr Log Ratio ([5]; PTAFR): 0.465
Expr Log Ratio ([5]; PTP4A3): -0.295
Expr Log Ratio ([5]; PTPN2): 0.048
Expr Log Ratio ([5]; RALA): -0.18
Expr Log Ratio ([5]; REL): -0.144
Expr Log Ratio ([5]; RELA): -0.006
Expr Log Ratio ([5]; RNASEL): 0.378
Expr Log Ratio ([5]; RPA1): 0.039
Expr Log Ratio ([5]; RPS6KA5): -0.015
Expr Log Ratio ([5]; SCX): 0.154
Expr Log Ratio ([5]; SDCBP): 0.02
Expr Log Ratio ([5]; SDHB): 0.024
Expr Log Ratio ([5]; SP3): -0.093
Expr Log Ratio ([5]; SP100): 0.189
Expr Log Ratio ([5]; SPINT1): -0.109
Expr Log Ratio ([5]; ST6GAL1): -0.01
Expr Log Ratio ([5]; STS): 0.181
Expr Log Ratio ([5]; TGFBR3): 0.172
Expr Log Ratio ([5]; TGS1): 0.171
expression of AHR target gene CYP1A1 ([5]; TMD8, 1 μM, 8 h): significantly downregulated
number of genes unchanged vs DMSO ([5]; TMD8, 1 μM, 8 h): 14389 genes
number of genes unchanged vs ibrutinib ([5]; TMD8, 1 μM, 8 h): 14881 genes
number of genes reduced vs DMSO ([5]; TMD8, 1 μM, 8 h, FDR < 0.01, log2FC < -0.5): 274 genes
number of genes increased vs DMSO ([5]; TMD8, 1 μM, 8 h, FDR < 0.01, log2FC > 0.5): 384 genes
number of genes increased vs ibrutinib ([5]; TMD8, 1 μM, 8 h, p-value <0.01): 105 genes
number of genes reduced vs ibrutinib ([5]; TMD8, 1 μM, 8 h, p-value <0.01): 61 genes
Expr Log Ratio ([5]; TNF): -0.16
Expr Log Ratio ([5]; TNFRSF11A): 0.052
Expr Log Ratio ([5]; TP53): -0.035
Expr Log Ratio ([5]; YWHAZ): 0.016
remaining binding at 1 µM ([6]; @1000nM, read-out: %Control): 94%
remaining binding at 1 µM ([6]; read-out: %Control @1000nM): 94%
kinact/KI [7]: 2.49e+06 M⁻¹ s⁻¹
Ki ([7]; BTK): 5.07 ± 0.36 nM
fold reduction of Kinact/Ki (potency) relative to 1g ([7]; BTK): 3 fold
kinact ([7]; BTK): 0.0126 ± 0.00067 s⁻¹
difference in %Control versus compound Ib at 1 µM ([8]; @1000nM): 0%
remaining binding at 1 µM ([8]; @1000nM, read-out: %Control): 100%
remaining binding at 1 µM ([8]; read-out: %Control @1000nM): 100%
